Results published in PMC8510169, “Isolation, Characterization, Complete Structural Assignment, and Anticancer Activities of the Methoxylated Flavonoids from Rhamnus disperma Roots” (Molecules, 2021).
Like-named read-outs stand apart in the source and are kept apart here.

How the values were obtained:
MCF 7 cells [1] = test: Cell cycle analysis (PI, flow cytometry); format: cell-based, human; settings: MCF 7, 24 h, 5, 10 and 20 µM, compared to the control
Procedure: The cell cycle is a series of changes occurring from the initial phase of cell formation leading to its division as a consequence of a specific mechanism. Cell cycle phases include G1 (gap 1), S (synthesis), G2 (gap 2), and M (mitosis), with cell cycle arrest usually taking place in the G1/S or the G2/M check points. Compound 1 was used to treat the MCF 7 cell line (24 h; 5 µM, 10 µM, and 20 µM) to investigate possible cell cycle effect.
Cell cycle analysis was performed using MCF 7 cells, which were cultured in 6 well plates (1 × 10^5 cells/well in 2 mL medium), before treatment with compound 1 (0, 5, 10, and 20 μM; 24 h). Cells were washed with cold PBS and trypsinized. Collected cells were centrifuged at 350 g/5 min, and supernatant discarded. Pellets were washed in cold PBS, centrifuged, and fixed overnight in 70% ice-cold ethanol. Centrifuged cells were re-suspended in cold PBS with the addition of ribonuclease A (15 min), followed by PI (2 µL/mL). Samples were held on ice and analyzed by flow cytometry. Data analysis of the DNA contents (PI bound to DNA) of 20,000 events was carried out using Expo 32 software.

[2] = system: MCF 7, A2780, and HT 29 cancer cell lines; test: MTT cytotoxicity assay, tested cancer cell lines taken together; format: cell-based, human; settings: for IC50: 72 h, MTT assay, MCF 7, A2780, HT 29, read-out: IC50 values against the three tested cancer cell lines (range over cell lines); for folds more selective/cytotoxic against tested cancer cell lines compared to MRC5 normal cells: ratio of MRC5 IC50 to cancer cell line IC50
Procedure: (§1) Three cancerous cell lines, as well as one normal fibroblast cell line, were bought from the ATCC, USA: MCF 7 (human breast adenocarcinoma), A2780 (human ovary adenocarcinoma), HT 29 (human colon adenocarcinoma), and MRC5 (normal human fetal lung fibroblast). The culture procedure was performed as described in the literature. Briefly, the cells were sub-cultured at 37 °C, 5% CO2, 95% air, and 100% relative humidity. RPMI-1640 media (10% FBS, L-glutamine and 1% antibiotic-antimycotic) was used for all cells except for MRC5, which was maintained in Eagles minimum essential medium (EMEM, 10% FBS and 1% antibiotic-antimycotic). Cytotoxicity of compounds 1–7 and 9 was evaluated by an MTT assay as previously described. Each of the three cell lines and one normal fibroblast were cultured in 96-well plates (3 × 10^3/well), and incubated at 37 °C overnight. Final concentrations of each compound were: 0, 0.05, 0.5, 5, 25, and 50 μM in media (DMSO 0.1%). Each concentration was tested in triplicates. The plates were incubated for 72 h and then MTT (50 μL) was added to each well. Plates were incubated for 3 h, supernatant was aspirated, and 100 μL of DMSO was added to each well. Absorbance was read on a multi-plate reader. The optical density of the purple formazan A550 is proportional to the number of viable cells. Compound concentrations causing 50% inhibition (IC50) compared to control cell growth (100%) were determined. GraphPad Prism version 5.00 for Windows, GraphPad Software (San Diego, CA, USA) was used for analysis.

[3] = system: A2780 (human ovary adenocarcinoma); test: MTT cytotoxicity assay, A2780; format: cell-based; settings: 72 h, mean ± SD
Procedure: as §1

[4] = system: MRC5 (normal human fetal lung fibroblast); test: MTT cytotoxicity assay, MRC5 normal fibroblasts; format: cell-based; settings: 72 h, normal fibroblast cell line, mean ± SD
Procedure: as §1

MCF 7 cells [5] = test: Annexin V FITC/PI apoptosis assay; format: cell-based, human; settings: MCF 7, 24 h, 5, 10 and 20 µM
Excerpt: Apoptosis was quantified by detecting cell surface exposure of phosphatidylserine (PS) in apoptotic cells using annexin V PI/FITC. Living cells stained with neither of the two dyes (PI−/annexin V−), while early apoptotic cells stain only with annexin V (PI−/annexin V+). In late apoptosis, cell membrane integrity is lost allowing penetration of PI (PI+/annexin V+); while in necrosis (death), cells stain with PI only (PI+/annexin V−).
The Annexin V FITC/PI assay was devised to quantify apoptosis using MCF 7 cells. MCF 7 cells were cultured in 6 well plates (1 × 10^5 cells/well) in 2 mL medium overnight at 37 °C. Then it was treated by compound 1 (24 h; final concentrations: 0, 5, 10, and 20 µM). Media was collected in tubes and kept on ice, and remaining cells were trypsinized, incubated at 37 °C and added to previous tubes. Cells were centrifuged (350 g) and supernatants were discarded. Cells were washed with PBS, centrifuged and pellets re-suspended in binding buffer (100 μL) and annexin V FITC (10 μL). Tubes were incubated at room temperature in the dark for 20 min. Binding buffer (400 μL) and 10 μL propidium iodide (PI) were added. Samples were analyzed by flow cytometry (BC FC500) within 1 h. Viable cells were differentiated from early and late apoptotic/necrotic cells by annexin V (X axis) and PI staining (Y axis).

[6] = system: MCF 7 (human breast adenocarcinoma); test: MTT cytotoxicity assay, MCF 7; format: cell-based; settings: mean ± SD
Procedure: as §1

[7] = system: HT 29 (human colon adenocarcinoma); test: MTT cytotoxicity assay, HT 29; format: cell-based; settings: mean ± SD
Procedure: as §1

In the case of `COc1cc2oc(-c3ccc(O)cc3)c(OC)c(=O)c2c(O)c1OC` [Compound 1, 5,4’-dihydroxy-3,6,7-tri-O-methyl flavone (penduletin)], the “effect on cell cycle (in words)” value (MCF 7 cells [1]) is reported as “caused G1 cell cycle arrest”, the “effect on cell cycle (in words)” value (MCF 7 cells [1]; listed as compound 1) is reported as “caused dose-dependent G1 arrest” and the IC50 ([2]; Homo sapiens) is reported as 530 to 9070 nM. For the same compound, the IC50 [2] was 530 to 2170 nM, the “folds more selective/cytotoxic against tested cancer cell lines compared to MRC5 normal cells” value (from here on “folds more selective/cytotoxic”) [2] was 2–9 folds and the IC50 [3] was 530 ± 450 nM. The IC50 [4] was 4400 ± 1450 nM, the “induction of apoptosis (in words)” value (MCF 7 cells [5]) was “doubled MCF 7 apoptotic populations in a dose dependent manner” and the “induction of apoptosis (in words)” value (MCF 7 cells [5]; listed as compound 1) was “induced remarkable apoptosis in a dose dependent manner”. The IC50 ([6]; 72 h) was 2170 ± 260 nM, the IC50 ([6]; Homo sapiens, MCF7, 72 h) was at most 2000 nM and the IC50 ([7]; 72 h) was 2160 ± 20 nM. The IC50 ([7]; Homo sapiens, HT-29, 72 h) was at most 2000 nM.
In the case of `COc1cc(-c2oc3cc(OC)c(OC)c(O)c3c(=O)c2OC)cc(O)c1OC` [Compound 2, 5,3’-dihydroxy-3,6,7,4’,5’-penta-O-methyl flavone], the “folds more selective/cytotoxic” value [2] is reported as “not selective”, the IC50 [3] is reported as 8970 ± 1720 nM and the IC50 [4] is reported as 5460 ± 1570 nM. The IC50 ([6]; Homo sapiens, MCF7, 72 h) was 6810 ± 40 nM and the IC50 ([7]; Homo sapiens, HT-29, 72 h) was 9070 ± 220 nM.
For `COc1cc(-c2oc3cc(OC)c(OC)c(O)c3c(=O)c2OC)cc(OC)c1OC` [Compound 3, 5-hydroxy-3,6,7,3’,4’,5’-hexa-O-methyl flavone], the IC50 ([2]; Homo sapiens) was 530 to 9070 nM, the “folds more selective/cytotoxic” value [2] was 4–5 folds and the IC50 [3] was 3730 ± 1750 nM. The IC50 [4] was 11700 ± 1580 nM, the IC50 ([6]; Homo sapiens, MCF7, 72 h) was 2760 ± 160 nM and the IC50 ([7]; Homo sapiens, HT-29, 72 h) was 2710 ± 1250 nM.
In the case of `COc1cc(-c2oc3cc(OC)c(OC)c(OC(C)=O)c3c(=O)c2OC)cc(OC)c1OC` [Compound 9, 5-O-acetyl-3,6,7,3’,4’,5’-hexa-O-methyl flavone], the “folds more selective/cytotoxic” value [2] is reported as 6–8 folds, the IC50 [4] is reported as 19000 ± 2980 nM and the IC50 ([6]; 72 h) is reported as 2190 ± 640 nM. For the same compound, the IC50 ([6]; Homo sapiens, MCF7, 72 h) was 2000 to 3000 nM, the IC50 ([7]; 72 h) was 3180 ± 640 nM and the IC50 ([7]; Homo sapiens, HT-29, 72 h) was 2000 to 3000 nM.
